Experimental data from ChEMBL document CHEMBL6087455 (Eur J Med Chem, 2025).
Active and inactive are the calls of the source. The rule behind the calls is not given here.

What was measured:
Acetylcholinesterase = molecular target: T1, Acetylcholinesterase (Rattus norvegicus, UniProt P37136); experiment: Inhibition of wistar rat brain AChE using acetylthiocholine iodide as substrate preincubated for 10 mins followed by substrate addition and measured after 5 mins by DTNB reagent based spectrophotometric Ellman's method
T1 sequence (P37136 whole entry): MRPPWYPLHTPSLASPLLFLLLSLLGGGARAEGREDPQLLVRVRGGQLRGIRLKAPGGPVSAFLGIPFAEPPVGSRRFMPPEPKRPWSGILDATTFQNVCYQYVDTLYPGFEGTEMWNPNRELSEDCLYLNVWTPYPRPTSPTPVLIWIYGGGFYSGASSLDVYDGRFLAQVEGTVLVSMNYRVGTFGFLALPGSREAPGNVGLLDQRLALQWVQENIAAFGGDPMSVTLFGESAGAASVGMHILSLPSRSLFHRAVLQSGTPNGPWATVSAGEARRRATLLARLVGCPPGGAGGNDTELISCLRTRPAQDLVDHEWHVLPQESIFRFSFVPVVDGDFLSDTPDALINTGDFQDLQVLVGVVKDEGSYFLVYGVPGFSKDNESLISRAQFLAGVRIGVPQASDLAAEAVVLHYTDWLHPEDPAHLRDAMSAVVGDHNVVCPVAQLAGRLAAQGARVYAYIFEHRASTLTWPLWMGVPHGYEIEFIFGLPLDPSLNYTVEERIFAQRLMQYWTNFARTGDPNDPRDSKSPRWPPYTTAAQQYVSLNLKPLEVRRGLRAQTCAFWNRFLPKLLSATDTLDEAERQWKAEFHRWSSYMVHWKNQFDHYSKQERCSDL

BV-2 [1] = experiment: Neuroprotective activity against LPS-induced neuronal damage in mouse BV-2 cells assessed as cell viability at 1 uM preincubated with compound for 1 hrs followed by LPS addition and measured after 24 hrs by Muse cell analyzer (reference value: 79.2 +/- 1.1 %); type: functional; conditions: time 25 hrs, read-out: Activity
BV-2 [2] = experiment: Antioxidant activity in LPS-induced mouse BV-2 cells assessed as reduction in ROS production at 1 uM preincubated with compound for 1 hrs followed by LPS addition and measured after 24 hrs by Muse cell analyzer relative to control; type: functional; design: scale not given: the % may be the effect or the level left
BV-2 [3] = experiment: Neuroprotective activity against LPS-induced neuronal damage in mouse BV-2 cells assessed as increase in cell viability at 1 uM preincubated with compound for 1 hrs followed by LPS addition and measured after 24 hrs by Muse cell analyzer; type: functional, cell-based; conditions: time 25.0 hrs
Caenorhabditis elegans [4] = experiment: Anti-alzheimer activity in amyloid-beta aggregation induced Caenorhabditis elegans GMC101 assessed as increase in worm motility at 10 uM administered from day 4 of adulthood and measured on day 5 to 7; type: functional, organism-based; conditions: time 4.0 day
Neuronal like cell [5] = experiment: Neuroprotective activity against LPS/TNF-alpha-induced damage in human neuronal like cells assessed as increase in cell proliferation at 10 uM preincubated with compounds for 24 hrs followed by compound washout and measured after 16 hrs of LPS/TNF-alpha addition by MTS assay; type: functional, cell-based
Neuronal like cell [6] = experiment: Antioxidant activity in human neuronal like cells assessed as reduction in LPS/TNF-alpha-induced ROS production at 10 uM preincubated with compound for 24 hrs followed by compound washout and measured after 16 hrs of LPS/TNF-alpha addition by H2DCF-DA based fluorescence analysis; type: functional
[7] = molecular target: Amyloid-beta precursor protein (Homo sapiens) (UniProt P05067); experiment: Inhibition of amyloid beta (1 to 42) (unknown origin) self aggregation at 10 uM preincubated with compound for 24 hrs followed by compound washout and measured after 24 hrs by ThT fluorescence based spectrophotometric analysis
Chain of Amyloid-beta precursor protein (Homo sapiens) (P05067 whole entry): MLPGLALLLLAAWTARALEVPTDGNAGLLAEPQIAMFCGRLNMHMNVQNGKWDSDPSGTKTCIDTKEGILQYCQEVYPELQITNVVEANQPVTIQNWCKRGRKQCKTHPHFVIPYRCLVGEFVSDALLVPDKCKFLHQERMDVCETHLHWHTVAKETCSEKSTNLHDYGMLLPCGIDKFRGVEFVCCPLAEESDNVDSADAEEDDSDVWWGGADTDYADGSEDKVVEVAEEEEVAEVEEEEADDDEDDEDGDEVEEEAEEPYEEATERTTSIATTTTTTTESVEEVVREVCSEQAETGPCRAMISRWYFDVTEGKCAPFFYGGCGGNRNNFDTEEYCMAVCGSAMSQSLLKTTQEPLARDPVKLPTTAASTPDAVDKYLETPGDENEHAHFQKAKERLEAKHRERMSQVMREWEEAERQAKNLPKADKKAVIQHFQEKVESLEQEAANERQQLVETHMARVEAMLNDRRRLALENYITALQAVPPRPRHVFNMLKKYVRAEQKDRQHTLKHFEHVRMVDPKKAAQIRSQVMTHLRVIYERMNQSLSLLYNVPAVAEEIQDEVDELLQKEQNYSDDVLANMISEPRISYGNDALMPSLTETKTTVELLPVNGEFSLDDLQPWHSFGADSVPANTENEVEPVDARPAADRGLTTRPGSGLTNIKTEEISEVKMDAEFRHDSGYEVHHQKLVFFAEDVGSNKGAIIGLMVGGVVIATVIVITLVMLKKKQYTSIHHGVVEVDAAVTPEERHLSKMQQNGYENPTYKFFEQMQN

[8] = Induction of H2S release in PBS at pH 7.4 assessed as H2S concentration at 1 mM measured after 30 mins in presence of L-cysteine by Apollo-4000 free radical analyzer; type: functional
Caenorhabditis elegans [9] = experiment: Anti-alzheimer activity in amyloid-beta aggregation induced Caenorhabditis elegans GMC101 assessed as increase in worm fitness at 10 uM administered from day 4 of adulthood and measured on day 7 relative to control; type: functional; conditions: time 4 day
A549 [10] = experiment: Induction of autophagy in human A549 cells assessed as increase in LC3-II level at >3 uM measured after 24 hrs by Western blotting analysis; type: functional, cell-based
[11] = Neuroprotective activity against LPS/TNF-alpha-induced damage in human neuronal like cells assessed as restoration of cell function at 10 uM preincubated with compounds for 72 hrs followed by compound washout and measured after 16 hrs of LPS/TNF-alpha addition by MTS assay relative to control; type: functional
Caenorhabditis elegans [12] = experiment: Anti-alzheimer activity in amyloid-beta aggregation induced Caenorhabditis elegans GMC101 assessed as improvement in displacement per bend of worm at 10 uM administered from day 4 of adulthood and measured on day 7; type: functional, organism-based; conditions: time 4.0 day
Caenorhabditis elegans [13] = experiment: Anti-alzheimer activity in amyloid-beta aggregation induced Caenorhabditis elegans GMC101 assessed as improvement in speed of worm movement at 10 uM administered from day 4 of adulthood and measured on day 7; type: functional, organism-based; conditions: time 4.0 day
A549 [14] = experiment: Induction of autophagy in human A549 cells assessed as decrease in p62 level at >3 uM measured after 24 hrs by Western blotting analysis relative to control; type: functional; design: scale not given: the % may be the effect or the level left
A549 [15] = experiment: Induction of autophagy in human A549 cells transfected with LC3-GFP plasmid assessed as increase in number of LC3 puncta at >3 uM measured after 24 hrs by high-content confocal microscopic analysis; type: functional, cell-based
A549 [16] = experiment: Cytotoxicity against human A549 cells transfected with LC3-GFP plasmid assessed as decrease in cell number upto 10 uM; type: toxicity, cell-based; conditions: a549, 10 µM

Compound `CCN(C)C(=O)Oc1cccc(N=C=S)c1` has an IC50 (Acetylcholinesterase) of 870 nM, a viability at 1 µM (BV-2 [1]) of 85.5% and an Activity (BV-2 [2]; time 25 hrs) of 10%.

Compound `[Na+].[SH-]` [SODIUM HYDROSULFIDE] has a viability at 1 µM (BV-2 [1]) of 87.2% and an Activity (BV-2 [2]; time 25 hrs) of 27%.

In the case of `CCN(C)C(=O)Oc1cccc(NC(=O)c2ccc(N=C=S)cc2)c1`, the IC50 (Acetylcholinesterase) is reported as 510 nM, the Activity (BV-2 [3]) is reported as “inactive” and the Activity (BV-2 [2]; time 25 hrs) is reported as 10%.

For `CCN(C)C(=O)Oc1cccc([C@H](C)N(C)C)c1` [RIVASTIGMINE], the viability at 1 µM (BV-2 [1]) was 84.1% and the Activity (BV-2 [2]; time 25 hrs) was about 10%.

`CCN(C)C(=O)Oc1cccc(CN=C=S)c1` gave an IC50 (Acetylcholinesterase) of 2190 nM, a viability at 1 µM (BV-2 [1]) of 85.3% and an Activity (BV-2 [2]; time 25 hrs) of 10%.

With `CCN(C)C(=O)Oc1cccc(NC(=O)COc2ccc(-c3cc(=S)ss3)cc2)c1` the IC50 (Acetylcholinesterase) was 410 nM, the Activity (BV-2 [3]) was “inactive” and the Activity (BV-2 [2]; time 25.0 hrs) was “inactive”.

For `CCN(C)C(=O)Oc1cccc(CCN=C=S)c1`, the IC50 (Acetylcholinesterase) was 1370 nM, the Activity (BV-2 [3]) was “inactive” and the Activity (BV-2 [2]; time 25 hrs) was 10%.

With `CCN(C)C(=O)Oc1cccc(C(N)=S)c1` the IC50 (Acetylcholinesterase) was 440 nM, the Activity (Caenorhabditis elegans [4]) was “Active” and the Activity (Neuronal like cell [5]) was “Active”. The Activity (Neuronal like cell [6]) was “Active”, the inhibition [7] was “Active; Comparable Activity With Nahs Observed” and the Activity [8] was 10 µM. The Activity (Caenorhabditis elegans [9]) was 10.5%, the Activity (A549 [10]) was “Active” and the viability at 1 µM (BV-2 [1]) was 85.7%. For the same compound, the Activity (BV-2 [2]; time 25 hrs) was 23%, the Activity [11] was 100% and the Activity (Caenorhabditis elegans [12]) was “Active”. For the same compound, the Activity (Caenorhabditis elegans [13]) was “Active; Slight Effect Observed”, the Activity (A549 [14]) was about 50% and the Activity (A549 [15]) was “Active”. For the same compound, the Activity (A549 [16]) was “Non-toxic”.
